# Experimental data reported in patent publication US10449157B2, “Process for producing microcapsules comprising an active component encapsulated, protected and stabilised within a protein shell” (Anabio Technologies Limited, priority 2013, dated 2019).
# Legend:
# [1] = product literature; cited from earlier work
# [2] = Stability trials of free and encapsulated Creatine in water (HPLC)
# [3] = Electrophoretic mobility (zeta potential); assay type: physicochemical
Structure (SMILES),long term stability in water [1],Creatine concentration reduced by ([2]; 15 min incubation in water at room temperature) [%],first-order degradation rate constant ([2]; in water at 25° C.) [per day],zeta potential [3] [mV]
"CN(CC(=O)O)C(=N)N.O [CREAPURE, Creatine Monohydrate]",no long term stability,,,
"CN(CC(=O)O)C(=N)N.O [commercial Creatine monohydrate, Creatine monohydrate]",,66,0.0263,−2.4
